This passage reports remaining binding results from patent US12121521B2, “Uses of salt-inducible kinase (SIK) inhibitors for treating osteoporosis” (The General Hospital Corporation, priority 2016, dated 2024).

Holding throughout (test): ScanEDGE kinase panel (DiscoverX)
Type in all cases: binding

One test concerns the target T1, TRKA (Homo sapiens, UniProt P04629).
T1 construct: T7 phage fusion (most kinases) or DNA tag after HEK-293 expression; purchased DiscoverX (Fremont, CA), ScanEDGE; host or cells: T7 phage in E. coli BL21-derived host, or HEK-293
The settings on record: read-out: % of control activity at 71 nM. The method, then: (§1) ScanEDGE kinase assays paneling specificity across a panel of 96 representative kinases were performed by DiscoverX (Fremont, CA). For most assays, kinase-tagged T7 phage strains were grown in parallel in 24-well blocks in an E. coli host derived from the BL21 strain. Bacteria were grown to log phase and infected with T7 phage from frozen stock (MOI=0.4) and incubated with shaking at 32° C. until lysis (90-150 minutes). The lysates were centrifuged (6000×g) and filtered (0.2 μm) to remove cell debris. The remaining kinases were produced in HEK-293 cells and subsequently tagged with DNA for qPCR detection. […] The liganded beads were blocked with excess biotin and washing with blocking buffer (SeaBlock (Pierce), 1% BSA, 0.05% Tween 20, 1 mM DTT) to remove unbound ligand and to reduce non-specific phage binding. […] Test compounds were prepared as 40× stocks in 100% DMSO and directly diluted into the assay. All reactions were performed in polypropylene 384 well plates in a final volume of 40 μl. […] The kinase concentration in the eluates was measured by qPCR.

Another test addresses T2, CSF1R (Homo sapiens, UniProt P07333).
T2 construct: T7 phage fusion (most kinases) or DNA tag for qPCR (HEK-293-made kinases); purchased DiscoverX (Fremont, CA); host or cells: E. coli BL21-derived host (T7 phage) or HEK-293
As to conditions: read-out: % of control activity at 71 nM. On the procedure:
as §1

The target in the next test is T3, EGFR (Homo sapiens, UniProt P00533).
T3 construct: T7 phage fusion (most kinases) or DNA tag for qPCR (HEK-293-made kinases); purchased DiscoverX (Fremont, CA); host or cells: E. coli BL21-derived host (T7 phage) or HEK-293
T3 sequence (P00533 25-1210): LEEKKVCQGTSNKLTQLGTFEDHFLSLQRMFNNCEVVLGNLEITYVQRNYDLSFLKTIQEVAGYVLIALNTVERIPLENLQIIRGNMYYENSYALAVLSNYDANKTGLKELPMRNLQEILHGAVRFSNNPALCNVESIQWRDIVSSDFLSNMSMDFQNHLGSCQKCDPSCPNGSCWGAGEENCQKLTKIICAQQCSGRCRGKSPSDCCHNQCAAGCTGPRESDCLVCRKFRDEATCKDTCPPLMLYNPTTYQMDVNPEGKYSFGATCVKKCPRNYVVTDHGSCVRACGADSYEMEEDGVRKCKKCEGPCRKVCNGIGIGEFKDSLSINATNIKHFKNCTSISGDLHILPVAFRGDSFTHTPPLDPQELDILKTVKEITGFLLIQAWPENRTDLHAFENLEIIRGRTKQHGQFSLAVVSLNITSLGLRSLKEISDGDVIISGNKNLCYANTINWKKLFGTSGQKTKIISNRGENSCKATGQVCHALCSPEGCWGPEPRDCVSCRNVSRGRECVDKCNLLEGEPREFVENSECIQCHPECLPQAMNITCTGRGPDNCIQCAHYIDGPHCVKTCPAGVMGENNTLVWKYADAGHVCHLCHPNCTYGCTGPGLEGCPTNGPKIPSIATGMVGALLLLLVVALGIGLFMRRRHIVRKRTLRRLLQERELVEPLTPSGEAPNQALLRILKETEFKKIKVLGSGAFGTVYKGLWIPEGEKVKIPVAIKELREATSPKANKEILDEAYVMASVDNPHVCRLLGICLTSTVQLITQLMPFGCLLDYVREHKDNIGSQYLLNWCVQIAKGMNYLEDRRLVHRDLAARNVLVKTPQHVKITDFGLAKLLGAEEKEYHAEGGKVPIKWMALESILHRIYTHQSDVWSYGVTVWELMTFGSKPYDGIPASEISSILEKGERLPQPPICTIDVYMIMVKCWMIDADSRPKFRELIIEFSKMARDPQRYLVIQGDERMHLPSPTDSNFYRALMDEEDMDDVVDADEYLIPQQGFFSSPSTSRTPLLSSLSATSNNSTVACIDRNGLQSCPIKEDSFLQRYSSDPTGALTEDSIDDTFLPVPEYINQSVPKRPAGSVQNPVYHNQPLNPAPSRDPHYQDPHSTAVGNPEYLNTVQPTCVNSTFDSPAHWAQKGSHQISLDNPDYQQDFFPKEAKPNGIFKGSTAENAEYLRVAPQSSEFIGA
The settings on record: read-out: % of control activity at 71 nM. On the procedure:
as §1

Another test deals with T4, AURKA (Homo sapiens, UniProt O14965).
T4 construct: T7 phage fusion (most kinases) or DNA tag for qPCR (HEK-293-made kinases); purchased DiscoverX (Fremont, CA); host or cells: E. coli BL21-derived host (T7 phage) or HEK-293
As to conditions: read-out: % of control activity at 71 nM. On the procedure: as §1

Another test addresses T5, CDK7 (Homo sapiens, UniProt P50613).
T5 construct: T7 phage fusion (most kinases) or DNA tag for qPCR (HEK-293-made kinases); purchased DiscoverX (Fremont, CA); host or cells: E. coli BL21-derived host (T7 phage) or HEK-293
The settings on record: read-out: % of control activity at 71 nM. The method, then:
as §1

For the next test, the target named is T6, PAK1 (Homo sapiens, UniProt Q13153).
T6 construct: T7 phage fusion (most kinases) or DNA tag for qPCR (kinases made in HEK-293); purchased DiscoverX; host or cells: E. coli BL21-derived host (T7 phage) or HEK-293
As to conditions: read-out: % of control activity at 71 nM. The method, then: as §1

Another test has as its target T7, FAK (Homo sapiens, UniProt Q05397).
T7 construct: T7 phage fusion (most kinases) or DNA tag for qPCR (HEK-293-made kinases); purchased DiscoverX; host or cells: E. coli BL21-derived host (T7 phage) or HEK-293
The settings on record: read-out: % of control activity at 71 nM. On the procedure:
as §1

The target of another test is T8, PIM1 (Homo sapiens, UniProt P11309).
T8 construct: T7 phage fusion (most kinases) or DNA tag for qPCR (kinases made in HEK-293); purchased DiscoverX; host or cells: E. coli BL21-derived host (T7 phage) or HEK-293
T8 sequence (P11309 whole entry, the tested form may be a part): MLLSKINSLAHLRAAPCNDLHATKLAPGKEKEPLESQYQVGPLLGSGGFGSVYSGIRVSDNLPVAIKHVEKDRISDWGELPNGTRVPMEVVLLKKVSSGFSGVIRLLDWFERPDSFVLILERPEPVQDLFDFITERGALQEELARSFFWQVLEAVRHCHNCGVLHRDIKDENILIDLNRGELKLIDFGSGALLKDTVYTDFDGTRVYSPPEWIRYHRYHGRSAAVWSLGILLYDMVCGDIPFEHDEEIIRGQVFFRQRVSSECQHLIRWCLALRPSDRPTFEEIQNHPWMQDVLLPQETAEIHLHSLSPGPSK
As to conditions: read-out: % of control activity at 71 nM. The method, then:
as §1

In another test the target is T9, IKK-beta (Homo sapiens, UniProt O14920).
T9 construct: T7 phage fusion (most kinases) or DNA tag for qPCR (HEK-293-made kinases); purchased DiscoverX; host or cells: E. coli BL21-derived host (T7 phage) or HEK-293
As to conditions: read-out: % of control activity at 71 nM. The method, then: as §1

A further test deals with T10, SIK (SIK1) (Homo sapiens, UniProt P57059).
T10 construct: T7 phage fusion (most kinases) or DNA tag after HEK-293 expression; purchased DiscoverX (Fremont, CA), ScanEDGE; host or cells: T7 phage in E. coli BL21-derived host, or HEK-293
As to conditions: SIK refers to SIK1, read-out: % of control activity at 71 nM. The method, then: as §1

For another test, the target named is T11, MET (Homo sapiens, UniProt P08581).
T11 construct: T7 phage fusion (most kinases) or DNA tag for qPCR (kinases made in HEK-293); purchased DiscoverX; host or cells: E. coli BL21-derived host (T7 phage) or HEK-293
T11 sequence (P08581 25-1390): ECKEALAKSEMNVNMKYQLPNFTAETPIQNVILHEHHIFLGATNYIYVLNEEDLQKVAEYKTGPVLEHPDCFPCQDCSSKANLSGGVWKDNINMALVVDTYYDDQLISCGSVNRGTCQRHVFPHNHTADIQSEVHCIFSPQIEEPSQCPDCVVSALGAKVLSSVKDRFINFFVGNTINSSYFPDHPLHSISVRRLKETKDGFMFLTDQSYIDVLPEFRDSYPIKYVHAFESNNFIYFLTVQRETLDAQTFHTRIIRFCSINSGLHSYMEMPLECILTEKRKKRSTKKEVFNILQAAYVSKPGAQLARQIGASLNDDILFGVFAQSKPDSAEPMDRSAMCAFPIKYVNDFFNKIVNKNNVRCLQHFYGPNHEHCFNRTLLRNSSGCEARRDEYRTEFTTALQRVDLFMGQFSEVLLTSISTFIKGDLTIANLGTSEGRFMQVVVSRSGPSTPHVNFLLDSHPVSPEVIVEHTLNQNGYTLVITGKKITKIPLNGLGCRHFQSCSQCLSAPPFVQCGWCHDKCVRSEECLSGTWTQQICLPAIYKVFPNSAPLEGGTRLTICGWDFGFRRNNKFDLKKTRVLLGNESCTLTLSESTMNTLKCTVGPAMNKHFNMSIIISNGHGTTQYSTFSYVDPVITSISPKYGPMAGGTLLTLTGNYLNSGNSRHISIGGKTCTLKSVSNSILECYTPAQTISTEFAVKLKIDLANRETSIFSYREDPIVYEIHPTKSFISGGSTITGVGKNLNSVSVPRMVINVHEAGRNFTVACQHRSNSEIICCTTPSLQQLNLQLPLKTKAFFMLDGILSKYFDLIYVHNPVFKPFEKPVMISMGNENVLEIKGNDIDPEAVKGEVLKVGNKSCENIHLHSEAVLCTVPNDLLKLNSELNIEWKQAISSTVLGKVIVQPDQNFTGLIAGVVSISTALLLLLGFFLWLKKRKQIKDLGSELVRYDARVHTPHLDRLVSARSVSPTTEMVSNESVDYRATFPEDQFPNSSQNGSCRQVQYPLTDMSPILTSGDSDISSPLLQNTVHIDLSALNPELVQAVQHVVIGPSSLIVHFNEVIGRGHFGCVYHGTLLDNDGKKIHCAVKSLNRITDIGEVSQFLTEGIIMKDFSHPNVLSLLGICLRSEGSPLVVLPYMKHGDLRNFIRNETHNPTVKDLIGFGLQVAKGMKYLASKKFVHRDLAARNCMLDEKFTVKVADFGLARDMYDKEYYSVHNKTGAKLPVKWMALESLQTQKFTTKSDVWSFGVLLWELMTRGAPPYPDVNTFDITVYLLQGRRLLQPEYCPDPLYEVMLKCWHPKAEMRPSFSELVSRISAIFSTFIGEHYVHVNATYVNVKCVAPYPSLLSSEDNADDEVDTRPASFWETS
As to conditions: read-out: % of control activity at 71 nM. The method, then:
as §1

For a further test, the target named is T12, BMPR2 (Homo sapiens, UniProt Q13873).
T12 construct: T7 phage fusion (most kinases) or DNA tag for qPCR (HEK-293-made kinases); purchased DiscoverX (Fremont, CA); host or cells: E. coli BL21-derived host (T7 phage) or HEK-293
The settings on record: read-out: % of control activity at 71 nM. The method, then: as §1

The target of a further test is T13, ARK5 (Homo sapiens, UniProt O60285).
T13 construct: T7 phage fusion (most kinases) or DNA tag for qPCR (HEK-293-made kinases); purchased DiscoverX (Fremont, CA); host or cells: E. coli BL21-derived host (T7 phage) or HEK-293
T13 sequence (O60285 whole entry, the tested form may be a part): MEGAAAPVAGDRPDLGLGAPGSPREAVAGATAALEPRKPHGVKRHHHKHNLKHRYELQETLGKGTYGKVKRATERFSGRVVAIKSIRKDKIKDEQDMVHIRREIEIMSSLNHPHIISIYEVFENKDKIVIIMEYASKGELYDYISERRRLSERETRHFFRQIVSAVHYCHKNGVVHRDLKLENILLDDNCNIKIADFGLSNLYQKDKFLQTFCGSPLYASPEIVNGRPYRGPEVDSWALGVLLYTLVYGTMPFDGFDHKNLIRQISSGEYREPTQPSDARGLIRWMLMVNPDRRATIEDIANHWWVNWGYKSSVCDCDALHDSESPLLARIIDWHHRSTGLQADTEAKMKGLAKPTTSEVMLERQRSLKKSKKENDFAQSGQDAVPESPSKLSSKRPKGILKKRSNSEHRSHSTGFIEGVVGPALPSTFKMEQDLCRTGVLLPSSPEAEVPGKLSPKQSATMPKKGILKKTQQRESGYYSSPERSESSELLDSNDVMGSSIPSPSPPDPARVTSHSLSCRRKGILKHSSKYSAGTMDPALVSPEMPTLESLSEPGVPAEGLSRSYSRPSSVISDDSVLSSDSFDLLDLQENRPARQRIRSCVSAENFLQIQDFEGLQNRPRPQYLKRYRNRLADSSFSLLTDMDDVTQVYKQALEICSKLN
The settings on record: read-out: % of control activity at 71 nM. On the procedure: as §1

Another test concerns the target T14, JNK1 (Homo sapiens, UniProt P45983).
T14 construct: T7 phage fusion (most kinases) or DNA tag for qPCR (HEK-293-made kinases); purchased DiscoverX; host or cells: E. coli BL21-derived host (T7 phage) or HEK-293
The settings on record: read-out: % of control activity at 71 nM. On the procedure:
as §1

The next test has as its target T15, PIM3 (Homo sapiens, UniProt Q86V86).
T15 construct: T7 phage fusion (most kinases) or DNA tag for qPCR (kinases made in HEK-293); purchased DiscoverX; host or cells: E. coli BL21-derived host (T7 phage) or HEK-293
As to conditions: read-out: % of control activity at 71 nM. The method, then:
as §1

A further test concerns the target T16, FLT3 (Homo sapiens, UniProt P36888).
T16 construct: T7 phage fusion (most kinases) or DNA tag for qPCR (HEK-293-made kinases); purchased DiscoverX; host or cells: E. coli BL21-derived host (T7 phage) or HEK-293
As to conditions: read-out: % of control activity at 71 nM. On the procedure: as §1

A further test concerns the target T17, PDPK1 (Homo sapiens, UniProt O15530).
T17 construct: T7 phage fusion (most kinases) or DNA tag for qPCR (kinases made in HEK-293); purchased DiscoverX; host or cells: E. coli BL21-derived host (T7 phage) or HEK-293
The settings on record: read-out: % of control activity at 71 nM. On the procedure:
as §1

T5 sequence (P50613 whole entry, the tested form may be a part): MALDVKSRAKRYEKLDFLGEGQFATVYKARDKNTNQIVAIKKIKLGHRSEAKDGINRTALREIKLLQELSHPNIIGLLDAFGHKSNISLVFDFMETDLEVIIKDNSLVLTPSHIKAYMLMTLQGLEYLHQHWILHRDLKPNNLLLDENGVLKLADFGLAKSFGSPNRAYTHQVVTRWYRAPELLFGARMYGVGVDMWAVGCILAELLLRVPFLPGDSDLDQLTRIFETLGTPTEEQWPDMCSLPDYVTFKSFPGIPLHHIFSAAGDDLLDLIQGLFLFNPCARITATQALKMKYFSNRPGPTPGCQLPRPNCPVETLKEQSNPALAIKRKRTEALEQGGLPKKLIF
T17 sequence (O15530 whole entry, the tested form may be a part): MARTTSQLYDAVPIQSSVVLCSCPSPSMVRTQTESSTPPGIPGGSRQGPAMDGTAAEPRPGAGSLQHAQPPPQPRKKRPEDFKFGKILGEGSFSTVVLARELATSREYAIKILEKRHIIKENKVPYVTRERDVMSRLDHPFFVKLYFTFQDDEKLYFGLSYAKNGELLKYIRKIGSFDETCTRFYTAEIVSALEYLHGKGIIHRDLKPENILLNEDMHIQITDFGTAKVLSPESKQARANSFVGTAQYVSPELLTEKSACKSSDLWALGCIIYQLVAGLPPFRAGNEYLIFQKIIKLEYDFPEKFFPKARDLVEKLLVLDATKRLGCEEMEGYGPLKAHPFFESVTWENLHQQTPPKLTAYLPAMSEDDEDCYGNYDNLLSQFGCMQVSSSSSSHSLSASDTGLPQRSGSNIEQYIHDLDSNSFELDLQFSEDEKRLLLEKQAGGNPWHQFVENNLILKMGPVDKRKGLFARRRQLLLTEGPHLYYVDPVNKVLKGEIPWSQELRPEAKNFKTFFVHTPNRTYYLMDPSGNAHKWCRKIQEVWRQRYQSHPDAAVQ

As for `COc1ccc(N2C(=O)N(c3c(C)cccc3C)Cc3cnc(Nc4ccc(C5CCN(C)CC5)c(OC)c4)nc32)c(OC)c1` [YKL-05-093], the remaining binding at 0.071 µM was 74% at TRKA; 0.85% at CSF1R; 5.9% at EGFR; 12% on AURKA; 85% at CDK7; 6.6% at PAK1. In addition, the remaining binding at 0.071 µM at FAK is 90%; at PIM1 it was 89%; on IKK-beta, 84%; on SIK (SIK1), 0.6%; on MET, 92%; on BMPR2, 87%. Moreover, the remaining binding at 0.071 µM at ARK5 came to 77%; at JNK1 it was 97%; at PIM3, 84%; on FLT3, 20%; at PDPK1 it was 55%.
